Key:
[1] = biological target: EGFR Del19/T790M/C797S (H1975-clone #28) (Homo sapiens, UniProt P00533, T790M/C797S, form not given); assay: EGFR degradation, HTRF total-EGFR assay, H1975-clone #28 (DTC); assay type: cell-based; conditions: H1975-clone #28 Del19/T790M/C797S, 16 h treatment
From the text: (§1) H1975-clone #28 (Del19/T790M/C797S, or abbr: DTC), H1975-clone #23 (Del19/C797S, or abbr: DC), H1975-clone #25 (L858R/T790M/C797S, or abbr: LTC) and H1975-clone #8 (L858R/C797S, or abbr: LC). EGFR-Del19/T790M/C797S, EGFR-Del19/C797S, EGFR-L858R/T790M/C797S and EGFR-L858R/C797S were stably expressed in H1975 cell lines by lentivirus-mediated over-expression, respectively. The EGFR over-expressed cells then underwent knockout, in which the EGFR targeting sgRNA was designed to only target the endogenous EGFR copies and preserve the exogenous EGFR copies. Followed by the knockout, the edited H1975 cells were seeded in 96 well plates at the concentration of 1 cell/well, cultured for about 2 weeks to allow single clones formation. The formed clones were screened by DNA sequencing and whole exon sequencing analysis for the desired edition. H1975-clone #28, H1975-clone #23, H1975-clone #25 and H1975-clone #8 were finally confirmed as homozygous Del19/T790M/C797S EGFR, Del19/C797S EGFR, L858R/T790M/C797S EGFR and L858R/C797S EGFR clones, respectively.
(§2) H1975-#25, H1975-#28, H1975-#23 and H1975-#8 cells are treated with compounds diluted in 0.2% DMSO cell culture medium on day 2, incubate for 16 h, 37° C., 5% CO2. The final concentration of compounds in all assay is start with 10 μM, 5-fold dilution, total 8 doses were included.
(§3) Total-EGFR cellular kit(64NG1PEH) were used for evaluating EGFR degradation.
(§4) After 16 h treatment, add HTRF lysis buffer to each well; seal the plate and incubate 1 hour at room temperature on a plate shaker; Once the cells are lysed, 16 μL of cell lysate are transferred to a PE 384-well HTRF detection plate; 4 μL of pre-mixed HTRF antibodies are added to each well; cover the plate with a plate sealer, spin 1000 rpm for 1 min, incubate overnight at room temperature; read on BMG PheraStar with HTRF protocol (337 nm-665 nm-620 nm).
(§5) The inhibition (degradation) percentage of the compound was calculated by the following equation:
(§6) Inhibition percentage of Compound=100−100×(Signal−low control)/(High control−low control), wherein signal=each test compound group
(§7) High control=Cell group with added DMSO and without compound, indicating microplate readings without EGFR degradation.
(§8) Imax (Dmax) is the maximum percentage of inhibition (degradation).
(§9) The IC50 (DC50) value of a compound can be obtained by fitting the following equation
(§10) Wherein, X and Y are known values, and IC50, Hillslope, Top and Bottom are the parameters obtained by fitting with software. Y is the inhibition percentage (calculated from the equation), X is the concentration of the compound; IC50 is the concentration of the compound when the 50% inhibition is reached. The smaller the IC50 value is, the stronger the inhibitory ability of the compound is. Vice versa, the higher the IC50 value is, the weaker the ability the inhibitory ability of the compound is; Hillslope represents the slope of the fitted curve, generally around 1*; Bottom represents the minimum value of the curve obtained by data fitting, which is generally 0%±20%; Top represents the maximum value of the curve obtained by data fitting, which is generally 100%±20%. The experimental data were fitted by calculating and analyzing with Dotmatics data analysis software.

[2] = biological target: T1, EGFR L858R/T790M/C797S (H1975-clone #25) (Homo sapiens, UniProt P00533, C797S/L858R/T790M); assay: EGFR degradation, HTRF total-EGFR assay, H1975-clone #25 (LTC); assay type: cell-based; conditions: H1975-clone #25 L858R/T790M/C797S, 16 h treatment
T1 construct: expressed in transfected cells; host or cells: H1975 (clone #25), lentiviral transduction, endogenous EGFR knocked out
T1 sequence (P00533 25-1210 T790M/C797S/L858R): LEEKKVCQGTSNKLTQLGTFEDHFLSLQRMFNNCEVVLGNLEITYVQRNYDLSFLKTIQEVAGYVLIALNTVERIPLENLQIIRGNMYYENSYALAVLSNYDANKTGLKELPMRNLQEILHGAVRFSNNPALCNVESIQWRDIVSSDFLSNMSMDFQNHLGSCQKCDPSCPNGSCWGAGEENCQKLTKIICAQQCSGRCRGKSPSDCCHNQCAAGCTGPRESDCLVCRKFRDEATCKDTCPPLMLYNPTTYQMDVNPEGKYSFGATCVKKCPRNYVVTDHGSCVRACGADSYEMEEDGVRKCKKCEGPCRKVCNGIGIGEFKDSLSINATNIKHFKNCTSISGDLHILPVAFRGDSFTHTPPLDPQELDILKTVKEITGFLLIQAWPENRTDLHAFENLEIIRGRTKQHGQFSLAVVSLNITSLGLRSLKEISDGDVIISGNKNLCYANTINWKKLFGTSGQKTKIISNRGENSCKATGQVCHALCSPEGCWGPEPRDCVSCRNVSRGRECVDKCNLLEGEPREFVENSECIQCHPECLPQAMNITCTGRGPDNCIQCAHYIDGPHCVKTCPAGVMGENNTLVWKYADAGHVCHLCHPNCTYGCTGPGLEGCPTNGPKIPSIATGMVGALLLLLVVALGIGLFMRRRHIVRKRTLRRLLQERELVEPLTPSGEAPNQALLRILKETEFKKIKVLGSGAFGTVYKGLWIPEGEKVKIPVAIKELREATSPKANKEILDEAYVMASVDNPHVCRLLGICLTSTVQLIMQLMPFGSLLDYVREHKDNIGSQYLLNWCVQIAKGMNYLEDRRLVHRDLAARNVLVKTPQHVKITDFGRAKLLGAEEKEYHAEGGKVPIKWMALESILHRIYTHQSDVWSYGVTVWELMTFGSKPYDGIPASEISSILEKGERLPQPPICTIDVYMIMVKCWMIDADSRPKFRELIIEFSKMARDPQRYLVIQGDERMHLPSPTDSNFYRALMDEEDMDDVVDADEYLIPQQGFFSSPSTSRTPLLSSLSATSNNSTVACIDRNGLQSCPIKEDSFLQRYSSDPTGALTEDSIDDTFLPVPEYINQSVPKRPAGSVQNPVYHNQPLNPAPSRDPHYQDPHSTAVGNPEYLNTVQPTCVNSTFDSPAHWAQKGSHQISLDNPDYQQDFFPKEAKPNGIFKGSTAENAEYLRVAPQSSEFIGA
From the text: as §1, §2, §3, §4, §5, §6, §7, §8, §9, §10

EGFR Del19/T790M/C797S (H1975-clone #28), sequence (P00533 with tags, fused parts or gaps DEL746-750/T790M/C797S, form open): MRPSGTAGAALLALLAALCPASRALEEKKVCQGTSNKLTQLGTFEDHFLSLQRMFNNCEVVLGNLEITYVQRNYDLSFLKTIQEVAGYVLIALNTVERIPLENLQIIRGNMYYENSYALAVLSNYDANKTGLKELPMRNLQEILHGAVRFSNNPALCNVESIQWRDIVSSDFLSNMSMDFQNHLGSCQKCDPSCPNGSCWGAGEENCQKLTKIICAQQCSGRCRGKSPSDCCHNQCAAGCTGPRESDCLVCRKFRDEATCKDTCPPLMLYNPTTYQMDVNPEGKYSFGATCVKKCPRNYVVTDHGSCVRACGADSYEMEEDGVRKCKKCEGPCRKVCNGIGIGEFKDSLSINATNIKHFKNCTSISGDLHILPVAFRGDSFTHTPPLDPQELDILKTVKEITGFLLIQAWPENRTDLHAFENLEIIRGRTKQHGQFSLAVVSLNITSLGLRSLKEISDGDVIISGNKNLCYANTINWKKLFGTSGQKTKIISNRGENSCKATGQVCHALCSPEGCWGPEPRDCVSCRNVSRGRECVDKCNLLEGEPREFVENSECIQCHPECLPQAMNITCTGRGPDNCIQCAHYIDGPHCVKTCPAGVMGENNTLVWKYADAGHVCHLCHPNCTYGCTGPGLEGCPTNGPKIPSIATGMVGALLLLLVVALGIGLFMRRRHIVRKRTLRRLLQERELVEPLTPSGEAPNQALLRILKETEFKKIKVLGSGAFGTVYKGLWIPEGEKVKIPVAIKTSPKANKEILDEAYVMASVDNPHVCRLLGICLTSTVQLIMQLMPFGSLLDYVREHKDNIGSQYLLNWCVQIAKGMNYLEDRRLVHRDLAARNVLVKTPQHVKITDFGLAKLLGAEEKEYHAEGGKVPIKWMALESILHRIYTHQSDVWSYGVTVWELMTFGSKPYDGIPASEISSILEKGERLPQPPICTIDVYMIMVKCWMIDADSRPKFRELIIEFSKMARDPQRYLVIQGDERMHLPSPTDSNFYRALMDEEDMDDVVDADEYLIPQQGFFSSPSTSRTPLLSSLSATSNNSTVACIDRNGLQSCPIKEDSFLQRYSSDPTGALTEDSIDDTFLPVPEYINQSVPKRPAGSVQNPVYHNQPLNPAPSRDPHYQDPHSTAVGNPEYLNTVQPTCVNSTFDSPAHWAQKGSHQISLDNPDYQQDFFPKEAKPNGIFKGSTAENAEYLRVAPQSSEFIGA

| Degradation H1975 # 28 DTC [1] | Degradation H1975 # 25-LTC [2] | SMILES |
| --- | --- | --- |
| 91.5 | 85.4 | Cc1cc2cc(n1)-c1cnn(C)c1OC[C@H]1C[C@@H](CN3/C(=N/C2=O)Nc2ccc(N4CCN(CC5CN(c6cc(F)c([C@H]7CCC(=O)NC7=O)c(F)c6)C5)CC4=O)cc23)C1 [Example 11, (R)-3-(4-(3-((4-((7^1s,7^3s,E)-1^1,2^6-dimethyl-3-oxo-5^2,5^3-dihydro-1^1H,5^1H-9-oxa-4-aza-5(2,1)-benzo[d]imidazola-2(2,4)-pyridina-1(4,5)-pyrazola-7(1,3)-cyclobutanacyclononaphane-5^6-yl)-3-oxopiperazin-1-yl)methyl)azetidin-1-yl)-2,6-difluorophenyl)piperidine-2,6-dione] |
| 85.3 | 79.0 | Cc1cc2cc(n1)-c1cnn(C)c1OC[C@H]1C[C@@H](CN3/C(=N/C2=O)Nc2ccc(N4CCN(C5CCN(c6ccc(C7CCC(=O)NC7=O)nc6)CC5)CC4=O)cc23)C1 (stereo partly shown) [Example 12, 3-(5-(4-(4-((7^1s,7^3s,E)-1^1,2^6-dimethyl-3-oxo-5^2,5^3-dihydro-1^1H,5^1H-9-oxa-4-aza-5(2,1)-benzo[d]imidazola-2(2,4)-pyridina-1(4,5)-pyrazola-7(1,3)-cyclobutanacyclononaphane-5^6-yl)-3-oxopiperazin-1-yl)piperidin-1-yl)pyridin-2-yl)piperidine-2,6-dione] |
| 76.0 | 87.3 | Cc1cc2cc(n1)-c1cnn(C)c1OC[C@H]1C[C@@H](CN3/C(=N/C2=O)Nc2ccc(N4CCN(C5CCN(c6ccc(C7CCC(=O)NC7=O)nc6)CC5)CC4)cc23)C1 (stereo partly shown) [Example 15, 3-(5-(4-(4-((7^1s,7^3s,E)-1^1,2^6-dimethyl-3-oxo-5^2,5^3-dihydro-1^1H,5^1H-9-oxa-4-aza-5(2,1)-benzo[d]imidazola-2(2,4)-pyridina-1(4,5)-pyrazola-7(1,3)-cyclobutanacyclononaphane-5^6-yl)piperazin-1-yl)piperidin-1-yl)pyridin-2-yl)piperidine-2,6-dione] |
| 86.2 | 88.3 | Cc1cc2cc(n1)-c1cnn(C)c1OC[C@H]1C[C@@H](CN3/C(=N/C2=O)Nc2ccc(N4CCC(N5CCN(c6cc(F)c([C@H]7CCC(=O)NC7=O)c(F)c6)CC5)CC4)cc23)C1 [Example 17, (R)-3-(4-(4-(1-((7^1s,7^3s,E)-1^1,2^6-dimethyl-3-oxo-5^2,5^3-dihydro-1^1H,5^1H-9-oxa-4-aza-5(2,1)-benzo[d]imidazola-2(2,4)-pyridina-1(4,5)-pyrazola-7(1,3)-cyclobutanacyclononaphane-5^6-yl)piperidin-4-yl)piperazin-1-yl)-2,6-difluorophenyl)piperidine-2,6-dione] |
| 88.4 | 88.6 | Cc1cc2cc(n1)-c1cnn(C)c1OC[C@H]1C[C@@H](CN3/C(=N/C2=O)Nc2ccc(N4CCN(C5CCN(c6cc(F)c([C@H]7CCC(=O)NC7=O)c(F)c6)CC5)C[C@H]4C)cc23)C1 [Example 18, (R)-3-(4-(4-((R)-4-((7^1s,7^3S,E)-1^1,2^6-dimethyl-3-oxo-5^2,5^3-dihydro-1^1H,5^1H-9-oxa-4-aza-5(2,1)-benzo[d]imidazola-2(2,4)-pyridina-1(4,5)-pyrazola-7(1,3)-cyclobutanacyclononaphane-5^6-yl)-3-methylpiperazin-1-yl)piperidin-1-yl)-2,6-difluorophenyl)piperidine-2,6-dione] |

— patent US20250332266A1, “COMPOUNDS FOR THE DEGRADATION OF EGFR KINASE” (BeiGene Switzerland GmbH, priority 2022, published 2025)
